Assay results as given in PubChem BioAssay (NCI).
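Briefly, cells in 96-well plates were exposed to five compound concentrations for 48 h, and endpoints were estimated by linear interpolation. TGI is the concentration that stops growth completely.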

Experiments:
Assay in all cases: DTP human tumour cell line panel, 48 h
HOP-92 NSCLC = test system: HOP-92 NSCLC
SNB-19 CNS = test system: SNB-19 CNS
MDA-MB-231 breast = test system: MDA-MB-231 breast
SF-268 CNS = test system: SF-268 CNS
NCI-H522 lung = test system: NCI-H522 lung
SN12C renal = test system: SN12C renal
SW-620 colon = test system: SW-620 colon
EKVX NSCLC = test system: EKVX NSCLC
SF-539 CNS = test system: SF-539 CNS
UO-31 renal = test system: UO-31 renal

| Compound | TGI (HOP-92 NSCLC) [µM] | TGI (SNB-19 CNS) [µM] | TGI (MDA-MB-231 breast) [µM] | TGI (SF-268 CNS) [µM] | TGI (NCI-H522 lung) [µM] | TGI (SN12C renal) [µM] | TGI (SW-620 colon) [µM] | TGI (EKVX NSCLC) [µM] | TGI (SF-539 CNS) [µM] | TGI (UO-31 renal) [µM] |
| --- | --- | --- | --- | --- | --- | --- | --- | --- | --- | --- |
| Cc1cc(C)nc(NS(=O)(=O)c2ccc(NC(=O)c3c4ccccc4nc4ccccc34)cc2)n1 | > 100 | > 100 | > 100 | > 100 | > 100 | > 100 | > 100 | > 100 | > 100 | > 100 |
| CC(C)(C)c1ccc(OCCOc2ccc(C(C)(C)C)cc2N)c(N)c1 | > 100 | > 100 | > 100 | > 100 | > 100 | > 100 | > 100 | > 100 | > 100 | > 100 |
| O=C1c2cccc([N+](=O)[O-])c2C(=O)N1Cc1ccccc1 | > 100 | > 100 | > 100 | > 100 | > 100 | > 100 | > 100 | > 100 | > 100 | > 100 |
| COc1ccc2c(c1)C(=O)CC1c3cnccc3C(=O)N21 (stereo not given) | > 100 | > 100 | > 100 | > 100 | > 100 | > 100 | > 100 | > 100 | > 100 | 99.5 |
| [N-]=[N+]=Nc1c(Cc2ccccc2)c(Cl)nc2ccccc12 | 64.4 | 83.1 | 56.7 | > 100 | > 100 | 73.8 | > 100 | > 100 | 41.3 | > 100 |
| CSc1ncc2c(n1)C(C#N)C1Sc3ccccc3N1C2=O (stereo not given) | > 100 | > 100 | > 100 | > 100 | > 100 | > 100 | > 100 | > 100 | > 100 | > 100 |
| CC(N=NNc1ccc(-c2nc3ccccc3[nH]2)cc1)C(=O)O (stereo not given) | > 100 | > 100 | > 100 | > 100 | 75.7 | > 100 | > 100 | > 100 | > 100 | > 100 |
